# Assay results as given in US8222414B2, “Indole compounds as an inhibitor of cellular necrosis” (LG Life Sciences Ltd., priority 2007, dated 2012).
# Test system: primary hepatocytes isolated from rats
# Test: Cell protective effects against doxorubicin in hepatocytes (WST-1 cell viability)
# Assay type: cell-based
# Settings: Hepatocyte; primary rat hepatocytes pretreated with compound for 30 min, then doxorubicin; viability by WST-1 after 24-48 h
# Method: Various endogenous/exogenous attacks on the cells trigger the mechanisms of cell death which is broadly classified into two types, i.e. apoptosis or necrosis. Using these cell death mechanisms, in the present experimental example, primacy hepatocytes isolated from rats were treated with drugs which were clinically shown to result in serious side-effects of hepatocyte toxicity or various chemicals which derive cell death, and the compounds synthesized in the Examples were estimated for their hepatocyte protective effects, after 24-48 h. The substances used to derive hepatocyte death include CCl4, ActD, H2O2, doxorubicin, anti-Fas Ab/Actinomycin D, acetaminophen, EtOH, CdCl2, palmitate, stearate, cyclophosphamide, terfenadine, diclofenac, simvastatin, and adefovir. Primary hepatocytes were isolated using the method of Seglen P O (Experimental Cell Research 74 (1972) pp 450-454). Briefly, hepatocytes were isolated according to the two-step collagenase perfusion method, and dead cells were removed by low speed (500 rpm) centrifugation for 10 min using percoll gradient (Kreamer B L etc, In Vitro Cellular & Developmental Biology 22 (1986) pp 201-211). During this step, the viability of cells was maintained 90% or above. The cells were suspended in HepatoZYME media (Gibco BRL), and the number of cells was counted. 1.5×10^4 cells in 100 μl were placed into the collagen-coated 96-well plate (BD biocoat), and adhered on the bottom for 3-4 h.
# In order to assess the hepatocyte protective effect, above adhered cells were pretreated with the Example compounds for 30 min. At this time, the concentration of the Example compounds were serially diluted by 2-fold or 3-fold over 5 steps starting from 30 uM, 10 uM or 1 uM depending on the experiments, and the final concentration of DMSO was adjusted to 0.2%. 30 min after the treatment by compounds, cells were treated by the substances deriving hepatocyte death or hepatotoxic drugs at the concentrations indicated in Table 1. After 24-48 h, the viability of cells was determined to estimate the hepatocyte protective effects. The viability of cells was determined using WST-1 (MK-400, […]) method by the absorbance at 440 nm. Hepatocyte protective effects of the Example compounds were represented by “EC50” which was calculated from measured values. “EC50” herein means the concentration of the compound at which 50% of maximum protective effect is observed in the experiment.
row,Structure (SMILES),EC50 [nM]
1,"c1cc(NC2CCCC2)c2[nH]c(C3=NCCS3)cc2c1 [Example 1, Cyclopentyl-[2-(4,5-dihydro-1,3-thiazol-2-yl)-1H-indol-7-yl]-amine]",> 1000
2,"OC[C@@H]1CSC(c2cc3cccc(NC4CCCC4)c3[nH]2)=N1 [Example 2, [(R)-2-(7-cyclopentylamino-1H-indol-2-yl)-4,5-dihydro-1,3-thiazol-4-yl]-methanol]",100
3,"OCc1cc(NC2CCCC2)c2[nH]c(C3=N[C@H](CO)CS3)cc2c1 [Example 6, (R)-2-[7-cyclopentylamino-5-(hydroxymethyl)-1H-indol-2-yl]-4,5-dihydro-thiazol-4-yl-methanol]",4930
4,"c1cc(NC2CCNCC2)c2[nH]c(C3=NCCS3)cc2c1 [Example 7, [2-(4,5-Dihydro-thiazol-2-yl)-1H-indol-7-yl]-piperidin-4-yl-amine]",1170
5,"Cc1cc(NCC2CCOCC2)c2[nH]c(C3=N[C@H](CC(=O)O)CS3)cc2c1 [Example 8, [(R)-2-(5-methyl-7-(tetrahydropyran-4-yl)methylamino-1H-indol-2-yl)-4,5-dihydro-thiazol-4-yl]-acetic acid]",410
6,"Cc1cc(NC2CCN(C(=O)C(F)(F)F)CC2)c2[nH]c(C3=N[C@@H](CC(=O)O)CS3)cc2c1 [Example 9, [(S)-2-(5-methyl-7-(1-trifluoroacetylpiperidin-4-yl)amino-1H-indol-2-yl)-4,5-dihydro-thiazol-4-yl]-acetic acid]",> 2000
7,"O=C(O)C[C@H]1CSC(c2cc3cccc(NCC4CCCCO4)c3[nH]2)=N1 (stereo partly drawn) [Example 10, 2-[(S)-2-(7-(tetrahydropyran-2-yl)methylamino-1H-indol-2-yl)-4,5-dihydro-thiazol-4-yl]-acetic acid]",600
8,"O=C(O)C[C@H]1CSC(c2cc3cccc(NC4CCOCC4)c3[nH]2)=N1 [Example 11, [(S)-2-(7-(tetrahydropyran-4-yl)amino-1H-indol-2-yl)-4,5-dihydro-thiazol-4-yl]-acetic acid]",2800
9,"O=C(O)C[C@H]1CSC(c2cc3cccc(NCC4CCOCC4)c3[nH]2)=N1 [Example 12, [(S)-2-(7-(tetrahydropyran-4-yl)methylamino-1H-indol-2-yl)-4,5-dihydro-thiazol-4-yl]-acetic acid]",3250
10,"CC(=O)N1CCC(Nc2cc(C)cc3cc(C4=N[C@@H](CC(=O)O)CS4)[nH]c23)C1 (stereo partly drawn) [Example 13, [(S)-2-(5-methyl-7-(1-acetylpyrrolidin-3-yl)amino-1H-indol-2-yl)-4,5-dihydro-thiazol-4-yl]-acetic acid]",1130
11,"O=C(O)C[C@@H]1CSC(c2cc3cc(Oc4ccccc4)cc(NCC4CCOCC4)c3[nH]2)=N1 [Example 15, [(R)-2-(5-phenoxy-7-(tetrahydropyran-4-yl)methylamino-1H-indol-2-yl)-4,5-dihydro-thiazol-4-yl]-acetic acid]",600
12,"O=C(O)C[C@H]1CSC(c2cc3cc(Oc4ccccc4)cc(NC4CCOCC4)c3[nH]2)=N1 [Example 16, [(S)-2-(5-phenoxy-7-(tetrahydropyran-4-yl)amino-1H-indol-2-yl)-4,5-dihydro-thiazol-4-yl]-acetic acid]",1290
13,"O=C(O)C[C@H]1CSC(c2cc3cc(Cl)cc(NCC4CCOCC4)c3[nH]2)=N1 [Example 18, [(S)-2-(5-chloro-7-(tetrahydropyran-4-yl)methylamino-1H-indol-2-yl)-4,5-dihydro-thiazol-4-yl]-acetic acid]",2420
14,"Cc1cc(NC2CCC2)c2[nH]c(C3=N[C@@H](CC(=O)O)CS3)cc2c1 [Example 19, [(S)-2-(5-methyl-7-cyclobutylamino-1H-indol-2-yl)-4,5-dihydro-thiazol-4-yl]-acetic acid]",350
15,"Cc1cc(NC2CCOC2)c2[nH]c(C3=N[C@@H](CC(=O)O)CS3)cc2c1 (stereo partly drawn) [Example 20, [(S)-2-(5-methyl-7-(tetrahydrofuran-3-yl)amino-1H-indol-2-yl)-4,5-dihydro-thiazol-4-yl]-acetic acid]",5770
16,"Cc1cc(NCC2CC2)c2[nH]c(C3=N[C@@H](CC(=O)O)CS3)cc2c1 [Example 21, [(S)-2-(5-methyl-7-cyclopropylmethylamino-1H-indol-2-yl)-4,5-dihydro-thiazol-4-yl]-acetic acid]",300
17,"Cc1cc(NCC2CCCC2)c2[nH]c(C3=N[C@@H](CC(=O)O)CS3)cc2c1 [Example 23, [(S)-2-(5-methyl-7-cyclopentylmethylamino-1H-indol-2-yl)-4,5-dihydro-thiazol-4-yl]-acetic acid]",140
18,"Cc1cc(NC2CCOCC2)c2[nH]c(C3=N[C@@H](CC(=O)O)CS3)cc2c1 [Example 25, [(S)-2-(5-methyl-7-(tetrahydropyran-4-yl)amino-1H-indol-2-yl)-4,5-dihydro-thiazol-4-yl]-acetic acid]",760
19,"Cc1cc(NC2CCCC2)c2[nH]c(C3=N[C@@H](CC(=O)O)CS3)cc2c1 [Example 26, [(S)-2-(5-methyl-7-cyclopentylamino-1H-indol-2-yl)-4,5-dihydro-thiazol-4-yl]-acetic acid]",200
20,"CC1CSC(c2cc3cccc(NC4CCOCC4)c3[nH]2)=N1 (stereo not shown) [Example 32, (Tetrahydropyran-4-yl)-[2-(4,5-dihydro-4-methyl-thiazol-2-yl)-1H-indol-7-yl]-amine]",2120
21,"CN(C)Cc1cc(NC2CCCC2)c2[nH]c(C3=N[C@H](CO)CS3)cc2c1 [Example 34, [(R)-2-(5-(dimethylamino)methyl-7-cyclopentylamino-1H-indol-2-yl)-4,5-dihydro-thiazol-4-yl]-methanol]",5580
22,"CC(=O)Nc1cc(NC2CCCC2)c2[nH]c(C3=N[C@H](CO)CS3)cc2c1 [Example 38, [(R)-2-(5-acetylamino-7-cyclopentylamino-1H-indol-2-yl)-4,5-dihydro-thiazol-4-yl]-methanol]",2000
23,"COC(=O)C[C@@H]1CSC(c2cc3cc(CN4CCCC4)cc(NC4CCCC4)c3[nH]2)=N1 [Example 40, [(R)-2-(5-(pyrrolidin-1-yl)methyl-7-cyclopentylamino-1H-indol-2-yl)-4,5-dihydro-thiazol-4-yl]-acetic acid methyl ester]",15600
24,"CC(=O)N1CC[C@@H](Nc2cccc3cc(C4=N[C@H](CO)CS4)[nH]c23)C1 [Example 43, {(R)-2-[7-((3R)-1-acetylpyrrolidin-3-yl)amino-1H-indol-2-yl]-4,5-dihydro-1,3-thiazol-4-yl}-methanol]",1000 to 10000
25,"CCOc1cc(NC2CCCC2)c2[nH]c(C3=N[C@@H](CC(=O)OC)CS3)cc2c1 [Example 46, [(S)-2-(5-ethoxy-7-cyclopentylamino-1H-indol-2-yl)-4,5-dihydro-thiazol-4-yl]-acetic acid methyl ester]",400
26,"CCOc1cc(NC2CCCC2)c2[nH]c(C3=N[C@@H](CC(=O)O)CS3)cc2c1 [Example 47, [(S)-2-(5-ethoxy-7-cyclopentylamino-1H-indol-2-yl)-4,5-dihydro-thiazol-4-yl]-acetic acid]",360

# Same assay, conditions: primary rat hepatocytes pretreated with compound for 30 min, then doxorubicin; viability by WST-1 after 24-48 h
row,Structure (SMILES),EC50 [nM]
1,"Cc1cc(NC2CCOCC2)c2[nH]c(C3=N[C@@H](CCO)CS3)cc2c1 [Example 24, [(S)-2-(5-methyl-7-(tetrahydropyran-4-yl)amino-1H-indol-2-yl)-4,5-dihydro-thiazol-4-yl]-ethanol]",130
2,"CN(c1cc(F)cc2cc(C3=N[C@H](CO)CS3)[nH]c12)C1CCCC1 [Example 45, {(R)-2-[7-(methyl-cyclopentyl)amino-5-fluoro-1H-indol-2-yl]-4,5-dihydro-1,3-thiazol-4-yl}-methanol]",1320
